Holding throughout (type): cell-based, Saccharomyces cerevisiae W303
Assay [1] relates to promoter of yeast gene YCR102c. The text has this: (§1) The inventors of the present application understood that the induction of certain yeast genes by toxic substances is caused by the activation of the promoters of the genes by the toxic substances. Thus, the inventors prepared a vector that comprised a polynucleotide sequence comprising the promoter of the yeast gene, which sequence is operably linked to a polynucleotide encoding a marker protein; and transformed yeast cells with the vector. […] The working examples hereinafter illustrate the preparation of such vectors, transformation of yeast cells by use of said vectors, and the detection of toxic substances by use of the transformed cells.
(§2) Promoter assay is a method for determining variations of the level of intracellular genes without destroying cells on the basis of the level of expressed marker genes instead of the expressed mRNA. The gene selected to detect a chemical substance is expressed in the absence of chemical substances, and thus a marker protein also occurs in the absence of chemical substances. In the method according to the present invention, the behavior of yeast genes on the addition of test materials is determined on the basis of the level of expressed marker protein so that the presence or the absence, and the kind of toxic chemical substances are predicted. Thus, it is desired that the production of marker proteins is lower in the absence of chemical substances, and the production of marker proteins is higher in the presence of chemical substances.
(§3) Type YEp shuttle vector pYES2 (pYES2, Cat no: V825-20, Invirtogen Corporation, USA), which can be replicated both in E. coli. and yeast was used as vector (R. W. Old, S. B. Primrose Principles of Gene Manipulation 5th Ed., BAIFUKAN CO., LTD, pp138-165, pp.234-263, 2000). The portion of vector PQBI 63 (Cat no.54-0082, Wako Pure Chemical Industries, Ltd.) corresponding to a marker protein GFP was used as the polynucleotide encoding GFP (SEQ ID No: 6). First, the GFP polynucleotide was inserted into the multiple cloning sites of pYES2 to give a vector. Thereafter, the GALL promoter of pYES2 was replaced with the polynucleotide comprising the promoter sequence of the intended yeast gene YCR102c (SEQ ID No: 2) to give an intended plasmid vector. Suitable restriction enzymes were selected, and the insertion of the polynucleotide comprising GFP and the promoter sequence was conducted.
(§4) Next, the yeast Saccharomyces cerevisiae W303 was transformed with the resultant plasmid vector according to the following procedures: • 1) Incubating the yeast Saccharomyces cerevisiae W303 in 200 ml of SD medium under shaking until OD 660 reaches 0.5; • 2) Suspending the collected cells in 5 ml of TE-buffer; • 3) Adding 250 μL of 2.5M lithium acetate; • 4) Dispending each 300 μl, adding 10 μl of above plasmid vector thereto, then incubating the suspensions at 30° C. for 30 minutes; • 5) Adding 700 μl of 50% PEG4000, and incubating the mixture under shaking at 30° C. for 60 minutes; • 6) Giving heat shock (42° C., 5 minutes), and then immediately cooling the mixture; • 7) Washing the mixture twice with 1M sorbitol; and • 8) Seeding it on agar plates made of minimum essential medium.
The cells of SC-YCR102C-pQBI as prepared in Example 3 were contacted to one of the following compounds. The yeast cells SC-YCR102C-pQBI were incubated at 25° C. in SD medium (Yeast nitrogen base without amino acids (Difco 0919-15)+glucose+amino acids (adenine, histidine, tryptophan)). One of toxic chemical substances as shown below was added to the cells at logarithmic growth phase, and then the cells were further incubated for two hours.

Assay [2] has as its system promoter of yeast gene YLL057c.
Source text: as §1, §2
as §3, with “YLL057c” for “YCR102c”, “4)” for “2)”
as §4
The cells of SC-YLL057C-pQBI as prepared in Example 5 were contacted to one of the following compounds. The yeast cells SC-YLL057C-pQBI were incubated at 25° C. in SD medium (Yeast nitrogen base without amino acids (Difco 0919-15)+glucose+amino acids (adenine, histidine, tryptophan)). One of toxic chemical substances as shown below was added to the cells at logarithmic growth phase, and then the cells were further incubated for two hours.

Assay [3] has as its system promoter of yeast gene YOR382w.
Source text: as §1, §2
as §3, with “pQBI” for “PQBI”, “GAL1” for “GALL”, “YOR382w” for “YCR102c”, “3)” for “2)”
as §4
The cells of SC-YOR382W-pQBI as prepared in Example 4 were contacted to one of the following compounds. The yeast cells SC-YOR382W-pQBI were incubated at 25° C. in SD medium (Yeast nitrogen base without amino acids (Difco 0919-15)+glucose+amino acids (adenine, histidine, tryptophan)). One of toxic chemical substances as shown below was added to the cells at logarithmic growth phase, and then the cells were further incubated for two hours.

The mark [4] stands for this setting: cells SC-YCR102C-pQBI, 2 hours incubation with the substance at the concentration printed in its row (column Concentrations), GFP fluorescence vs control without chemical.
Where [5] appears, read: cells SC-YLL057C-pQBI, 2 hours incubation with the substance at the concentration printed in its row (column Concentrations), GFP fluorescence vs control without chemical.
Where [6] appears, read: cells SC-YOR382W-pQBI, 2 hours incubation with the substance at the concentration printed in its row (column Concentrations), GFP fluorescence vs control without chemical.
Setting [7] is: SC-YOR382W-pQBI cells, summary of Table 12.

Where two headings read alike, the source gives them in different places.

Consider CdCl2 [(2)], for which the results for the Fluorescence result in assay [1] (setting [4]), in assay [2] (setting [5]) and in assay [3] (setting [6]) were “− (the number of the cells having a higher fluorescence than the control was under 1%)”, “++ (2% or more)” and “− (the number of the cells having a higher fluorescence than the control was under 1%)”, respectively. In addition, the “expression of GFP” value in assay [2] (SC-YLL057C-pQBI cells, summary of Table 13) was “induced the expression of GFP”.
With HgCl2 [(3)], the Fluorescence result in assay [1] (setting [4]), in assay [2] (setting [5]) and in assay [3] (setting [6]) was “− (the number of the cells having a higher fluorescence than the control was under 1%)” throughout.
For `CN(C)C(=S)SSC(=S)N(C)C` [(10), Tetramethylthiuram disulfide], the “expression of GFP” value in assay [1] (SC-YCR102C-pQBI cells, summary of Table 11) is “induced the expression of GFP”.
For `O=[N+]([O-])c1cc[n+]([O-])c2ccccc12` [(5), 4-nitroquinolin-N-oxide], the “expression of GFP” value in assay [3] (setting [7]) is “induced the expression of GFP”.
“manganese ethylenebis(dithiocarbamate) [(8)]”: the Fluorescence entry in assay [1] (setting [4]) is recorded as “− (the number of the cells having a higher fluorescence than the control was under 1%)”; in assay [2] (setting [5]), “− (the number of the cells having a higher fluorescence than the control was under 1%)”; in assay [3] (setting [6]), “++ (2% or more)”. For the same compound, the “expression of GFP” value in assay [3] (setting [7]) is “induced the expression of GFP”.
For the compound γ-hexachlorocyclohexane [(7)], the Fluorescence entry in assay [1] (setting [4]), in assay [2] (setting [5]) and in assay [3] (setting [6]) was “− (the number of the cells having a higher fluorescence than the control was under 1%)” in each case.
`CC(=O)O.Cc1nc(N)cc2[nH]c3ccccc3c12` [Trp-P-2 (acetate)]: the Fluorescence result in assay [1] was “− (key: −: the number of the cells having a higher fluorescence than the control was under 1%; +: between 1% and 2%; ++: 2% or more)”; in assay [2], “− (key: −: the number of the cells having a higher fluorescence than the control was under 1%; +: between 1% and 2%; ++: 2% or more)”; in assay [3] it was “++ (key: −: the number of the cells having a higher fluorescence than the control was under 1%; +: between 1% and 2%; ++: 2% or more)”. Also, the “expression of GFP” value in assay [3] is “induced the expression of GFP”.
For the compound `CCN(CC)C(=O)SCc1ccc(Cl)cc1` [S-4-Chlorobenzyl-N,N-diethylthiocarbamate], the Fluorescence result in assay [1] (setting [4]), in assay [2] (setting [5]) and in assay [3] (setting [6]) was “− (the number of the cells having a higher fluorescence than the control was under 1%)” throughout.
For the compound `O=S(=O)([O-])[O-].[Cu+2]` [copper sulfate (II)], the Fluorescence result in assay [1] is “− (key: −: the number of the cells having a higher fluorescence than the control was under 1%; +: between 1% and 2%; ++: 2% or more)”; in assay [2] it was “− (key: −: the number of the cells having a higher fluorescence than the control was under 1%; +: between 1% and 2%; ++: 2% or more)”; in assay [3], “− (key: −: the number of the cells having a higher fluorescence than the control was under 1%; +: between 1% and 2%; ++: 2% or more)”.
With `Oc1cc(Cl)c(Cl)cc1Cl` [(6), 2,4,5-trichlorophenol], the “expression of GFP” value in assay [3] is given as “induced the expression of GFP”.
For `C[S+](C)[O-]` [(15), dimethylsulfoxide], the “expression of GFP” value in assay [3] (setting [7]) was “induced the expression of GFP”.

These data come from US20050112573A1, “Method of detecting toxic substance” (priority 2001, published 2005).
